Measurements from ChEMBL document CHEMBL1147027, “The role of fluorine substitution in the structure-activity relationships (SAR) of classical cannabinoids” (2007).

Key:
[1] = biological target: Cannabinoid receptor 2 (Homo sapiens) (UniProt P34972); assay: Binding affinity to CB2 receptor
Mus musculus [2] = assay: Effect on behavioral activity in intrathecally dosed mouse assessed as tail flick by tetrad test at 100 mg/kg; type: functional
Mus musculus [3] = species: Mus musculus; assay: Effect on behavioral activity in mouse assessed as spontaneous activity by tetrad test; type: functional
[4] = biological target: Cannabinoid receptor 1 (Homo sapiens) (UniProt P21554); assay: Binding affinity to CB1 receptor
Sequence of Cannabinoid receptor 1 (Homo sapiens) (P21554 whole entry): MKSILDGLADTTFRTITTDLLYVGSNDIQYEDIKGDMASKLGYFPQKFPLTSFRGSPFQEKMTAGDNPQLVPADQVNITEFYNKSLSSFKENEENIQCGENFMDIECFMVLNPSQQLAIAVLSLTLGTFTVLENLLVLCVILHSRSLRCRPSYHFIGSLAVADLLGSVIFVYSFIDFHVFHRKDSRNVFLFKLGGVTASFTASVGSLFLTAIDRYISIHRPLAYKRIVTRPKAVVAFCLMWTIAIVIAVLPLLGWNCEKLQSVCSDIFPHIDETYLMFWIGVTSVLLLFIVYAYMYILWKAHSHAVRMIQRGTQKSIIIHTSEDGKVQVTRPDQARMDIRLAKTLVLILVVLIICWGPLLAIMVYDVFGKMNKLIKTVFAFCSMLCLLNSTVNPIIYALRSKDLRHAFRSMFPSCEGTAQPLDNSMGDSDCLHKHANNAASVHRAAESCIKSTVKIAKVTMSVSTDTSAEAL

Mus musculus [5] = species: Mus musculus; assay: Effect on behavioral activity in mouse assessed as rectal temperature by tetrad test; type: functional
Mus musculus [6] = species: Mus musculus; assay: Effect on behavioral activity in mouse assessed as tail flick by tetrad test; type: functional
Mus musculus [7] = assay: Effect on behavioral activity in intrathecally dosed mouse assessed as tail flick by tetrad test; type: functional
Mus musculus [8] = assay: Effect on behavioral activity in mouse assessed as tail flick by tetrad test at 30 mg/kg; type: functional
Mus musculus [9] = assay: Effect on behavioral activity in mouse assessed as rectal temperature by tetrad test at 30 mg/kg; type: functional
Mus musculus [10] = assay: Effect on behavioral activity in mouse assessed as spontaneous activity by tetrad test at 30 mg/kg; type: functional

Sequence of Cannabinoid receptor 2 (Homo sapiens) (P34972 whole entry): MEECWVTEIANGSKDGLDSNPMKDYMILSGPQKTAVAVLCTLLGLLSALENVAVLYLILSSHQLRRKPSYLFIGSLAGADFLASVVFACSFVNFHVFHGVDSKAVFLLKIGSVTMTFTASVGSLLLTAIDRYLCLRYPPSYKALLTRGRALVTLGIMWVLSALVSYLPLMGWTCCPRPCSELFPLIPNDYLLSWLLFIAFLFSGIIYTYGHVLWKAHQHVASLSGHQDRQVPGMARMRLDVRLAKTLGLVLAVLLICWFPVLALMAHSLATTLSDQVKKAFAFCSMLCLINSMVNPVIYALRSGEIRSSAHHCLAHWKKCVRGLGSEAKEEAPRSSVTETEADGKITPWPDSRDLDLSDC

Row | Structure (SMILES) | Activity [1] | Activity (Mus musculus [2]) | ED50 (Mus musculus [3]) | Activity [4] | ED50 (Mus musculus [5]) | ED50 (Mus musculus [6]) | Activity (Mus musculus [7]) | Activity (Mus musculus [8]) | Activity (Mus musculus [9]) | Activity (Mus musculus [10])
1 | CCCCCCCc1cc(F)c2c(c1)OC(C)(C)[C@@H]1CC=C(C)C[C@@H]21 | 1510 nM | 36% | 31.1 mg/kg | 1560 nM | 6.9 mg/kg | 21.5 mg/kg |  |  |  | 
2 | CCCCC/C=C/c1cc(F)c2c(c1)OC(C)(C)[C@@H]1CC=C(C)C[C@@H]21 | 40 nM |  |  | 285 nM |  |  |  |  |  | 
3 | CCCCCC#Cc1cc(O)c2c(c1)OC(C)(C)[C@@H]1CC=C(C)C[C@@H]21 |  |  | 3.68 mg/kg | 36 nM | 2.96 mg/kg | 3.24 mg/kg |  |  |  | 
4 | CCCCC/C=C/c1cc(O)c2c(c1)OC(C)(C)[C@@H]1CC=C(C)C[C@@H]21 |  |  | 0.09 mg/kg | 0.86 nM | 0.13 mg/kg | 0.09 mg/kg |  |  |  | 
5 | CCCCCC#Cc1cc(F)c2c(c1)OC(C)(C)[C@@H]1CC=C(C)C[C@@H]21 | > 4550 nM |  |  | > 10000 nM |  |  | 156.9 µg | 4% | -2.2 °C | 8%
6 | CCCCCc1cc(O)c2c(c1)OC(C)(C)[C@@H]1CCC(C)=C[C@@H]21 [DRONABINOL] |  |  | 1 mg/kg |  | 1.4 mg/kg | 1.4 mg/kg | 29 µg |  |  | 
